Experimental data taken from the NIST ThermoML archive (doi:10.1021/je800998u).
Numbers after ± are expanded uncertainties.

Experiment: molar heat capacity at constant pressure
Conditions: 101.33 kPa, Crystal 2, Small (less than 1 g) adiabatic calorimetry

CC(C)COCC(C)C [diisobutyl ether]
Conditions	molar heat capacity at constant pressure [J/K/mol]
8.82 K	1.718 ± 0.05
9.09 K	1.873 ± 0.053
9.35 K	2.044 ± 0.055
9.61 K	2.275 ± 0.059
9.86 K	2.429 ± 0.061
10 K	2.519 ± 0.064
10.18 K	2.65 ± 0.064
10.58 K	2.937 ± 0.068
10.96 K	3.313 ± 0.074
11.34 K	3.685 ± 0.079
11.75 K	4.078 ± 0.085
12.13 K	4.434 ± 0.089
12.5 K	4.803 ± 0.094
12.88 K	5.199 ± 0.099
13.25 K	5.584 ± 0.1
13.61 K	6.04 ± 0.11
13.98 K	6.505 ± 0.12
14.34 K	6.941 ± 0.12
14.71 K	7.42 ± 0.13
15 K	7.709 ± 0.13
15.07 K	7.816 ± 0.13
15.44 K	8.198 ± 0.14
15.8 K	8.608 ± 0.14
16.15 K	9.109 ± 0.15
16.51 K	9.706 ± 0.15
16.86 K	10.12 ± 0.16
17.21 K	10.68 ± 0.16
17.57 K	11.14 ± 0.17
17.92 K	11.79 ± 0.17
18.28 K	12.13 ± 0.18
18.63 K	12.7 ± 0.18
18.98 K	13.24 ± 0.19
19.33 K	13.71 ± 0.19
19.68 K	14.26 ± 0.2
20 K	14.73 ± 0.2
20.03 K	14.7 ± 0.2
20.68 K	15.81 ± 0.21
21.44 K	17.01 ± 0.22
22.21 K	18.14 ± 0.22
22.97 K	19.36 ± 0.23
23.73 K	20.47 ± 0.24
24.49 K	21.77 ± 0.24
25 K	22.61 ± 0.25
25.25 K	22.85 ± 0.25
26 K	24.23 ± 0.26
26.76 K	25.53 ± 0.26
27.53 K	26.72 ± 0.26
28.29 K	27.81 ± 0.26
29.04 K	29.05 ± 0.27
29.8 K	30 ± 0.26
30 K	30.39 ± 0.25
30.56 K	31.03 ± 0.26
31.31 K	32.45 ± 0.26
32.07 K	33.45 ± 0.27
32.84 K	34.56 ± 0.27
33.59 K	35.68 ± 0.28
34.35 K	36.74 ± 0.28
35 K	37.65 ± 0.29
35.1 K	37.87 ± 0.29
35.86 K	38.82 ± 0.29
36.61 K	39.8 ± 0.3
37.36 K	40.72 ± 0.3
38.11 K	42.01 ± 0.31
38.86 K	43.03 ± 0.32
39.62 K	44.08 ± 0.32
40 K	44.52 ± 0.32
40.37 K	45.1 ± 0.33
41.12 K	46.17 ± 0.33
41.87 K	47.05 ± 0.34
42.62 K	47.91 ± 0.34
43.37 K	48.99 ± 0.35
44.12 K	49.85 ± 0.35
44.88 K	50.69 ± 0.35
45 K	51.04 ± 0.36
45.63 K	51.79 ± 0.36
46.38 K	52.94 ± 0.37
47.13 K	53.72 ± 0.37
47.88 K	54.52 ± 0.37
48.63 K	55.63 ± 0.38
49.38 K	56.47 ± 0.38
50 K	57.22 ± 0.39
50.12 K	57.39 ± 0.39
50.87 K	58.27 ± 0.39
51.62 K	59.17 ± 0.4
52.36 K	60.07 ± 0.4
53.11 K	61.06 ± 0.41
53.85 K	62.18 ± 0.41
54.6 K	63.09 ± 0.42
55 K	63.54 ± 0.42
55.34 K	63.95 ± 0.42
56.09 K	64.95 ± 0.43
56.83 K	66.04 ± 0.43
57.57 K	67.47 ± 0.44
59.06 K	68.36 ± 0.44
59.81 K	69.16 ± 0.45
60 K	69.69 ± 0.45
60.55 K	69.92 ± 0.45
61.29 K	71.03 ± 0.46
62.03 K	72.13 ± 0.46
62.77 K	72.85 ± 0.47
63.51 K	73.59 ± 0.47
64.25 K	74.59 ± 0.47
64.99 K	75.44 ± 0.48
65 K	75.34 ± 0.48
65.73 K	76.13 ± 0.48
66.47 K	76.73 ± 0.48
67.21 K	77.8 ± 0.49
67.95 K	78.53 ± 0.49
68.69 K	79.4 ± 0.5
69.43 K	79.64 ± 0.5
70 K	80.28 ± 0.5
70.16 K	80.5 ± 0.5
71.06 K	80.99 ± 0.51
72.11 K	81.81 ± 0.51
73.16 K	83.2 ± 0.52
74.21 K	84.22 ± 0.52
75 K	84.76 ± 0.52
75.26 K	84.92 ± 0.53
76.31 K	85.85 ± 0.53
77.36 K	86.85 ± 0.54
77.99 K	88.21 ± 0.54
78.41 K	87.75 ± 0.54
79.13 K	89.1 ± 0.55
79.45 K	89.04 ± 0.55
80 K	89.65 ± 0.55
80.18 K	90.02 ± 0.55
80.5 K	89.99 ± 0.55
81.22 K	91.36 ± 0.56
81.55 K	90.95 ± 0.56
82.26 K	92.28 ± 0.56
82.59 K	92.15 ± 0.56
83.3 K	92.88 ± 0.56
83.63 K	93.23 ± 0.57
84.34 K	93.83 ± 0.57
84.68 K	93.86 ± 0.57
85 K	94.92 ± 0.58
85.37 K	94.92 ± 0.58
85.72 K	96.14 ± 0.58
86.41 K	96.9 ± 0.58
87.44 K	97.86 ± 0.59
88.48 K	98.97 ± 0.59
89.51 K	100 ± 0.6
90 K	100.3 ± 0.6
90.55 K	101.18 ± 0.61
91.58 K	101.87 ± 0.61
92.61 K	102.82 ± 0.61
93.65 K	104.36 ± 0.62
94.68 K	104.93 ± 0.62
95 K	105.3 ± 0.6
95.71 K	105.7 ± 0.62
96.75 K	106.52 ± 0.63
97.78 K	107.57 ± 0.63
98.81 K	108.62 ± 0.63
99.84 K	109.08 ± 0.64
100 K	109.7 ± 0.6
100.86 K	110.59 ± 0.64
101.89 K	111.96 ± 0.65
102.92 K	112.24 ± 0.65
103.95 K	113.24 ± 0.65
104.98 K	114.44 ± 0.66
106.01 K	115.08 ± 0.66
107.04 K	116.13 ± 0.66
108.06 K	116.43 ± 0.67
109.09 K	117.54 ± 0.67
110 K	118.6 ± 0.7
110.11 K	118.56 ± 0.67
111.14 K	119.31 ± 0.68
112.16 K	120.35 ± 0.68
113.18 K	121.34 ± 0.69
114.21 K	122.79 ± 0.69
115.23 K	123.92 ± 0.7
116.25 K	124.47 ± 0.7
117.27 K	125.86 ± 0.7
118.29 K	126.81 ± 0.71
119.32 K	127.51 ± 0.71
120 K	128 ± 0.7
120.34 K	128.32 ± 0.71
121.36 K	129.04 ± 0.72
122.38 K	130.15 ± 0.72
123.4 K	131.15 ± 0.72
124.42 K	131.86 ± 0.73
125.44 K	132.59 ± 0.73
126.46 K	133.8 ± 0.74
127.47 K	134.67 ± 0.74
128.49 K	135.82 ± 0.74
129.51 K	137.05 ± 0.75
130 K	137.1 ± 0.8
130.53 K	137.63 ± 0.75
131.54 K	138.57 ± 0.75
132.56 K	139.45 ± 0.76
133.57 K	140.23 ± 0.76
134.59 K	141.56 ± 0.77
135.6 K	142.61 ± 0.77
136.62 K	143.17 ± 0.77
137.63 K	144.11 ± 0.78
138.64 K	145.82 ± 0.78
139.66 K	146.49 ± 0.79
140 K	147 ± 0.8
